Like-named read-outs stand apart in the source and are kept apart here.
Assays:
[1] = Suture testing in aqueous suspension of CaSt: endotoxin detected on LPS-contaminated suture; format: biochemical
Protocol: Treatment of sutures in aqueous suspensions of CaSt was performed as follows: Suture used was VICRYL® (Polyglactin 910) suture made of a copolymer made from 90% glycolide and 10% L-lactide, Size 1, 27 inch pieces. […] Endosafe LAL Reagent Water (LRW) was used, manufactured by Charles River Laboratories, Charleston S.C..
Eight strands of suture were placed in tubing with LPS (endotoxin) solution for 10 minutes at a time. The sutures were dried for 20 minutes and then placed in round bottom tubes. Suspensions of 5% by weight CaSt in LAL Reagent Water were prepared. (0.5 g CaSt in 10 mL LRW). One suture was placed in each tube and vortexed in this solution for approximately 10 seconds. The sutures were removed and allowed to dry for 20 minutes and then placed in round bottom tubes. This was done for 3 sutures. Three pieces of suture, serving as the control, were not submerged in any solutions and placed in test tubes. 3 mL of LAL reagent water was added to each test tube, vortexed vigorously for 1 minute, and then placed in a hot water bath at 37°C for 1 hour. They were then removed, vortexed vigorously for 1 minute, diluted, and tested on the MCS system. […] These were also tested for endotoxin on the MCS. Table 4. Detection of LPS after adding CaSt to test tubes containing water spiked with LPS

[2] = Kinetics of removal of LPS with different agitation techniques in presence of stearate salts; format: biochemical; details: for Endotoxin Detected (EU): 5mL SRW, baseline 1,502; for Percent (%) Removed: vs SRW Baseline
Protocol: 5mL of SRW was added to each of the tubes. Each solution was tested for endotoxin removal after agitation based on with sonication, vortexing, or test tube rolling. Sonication samples were sonicated at each indicated time interval for 30 seconds at a magnitude of 30. Vortex samples were vortexed at each indicated time interval for 30 seconds at 2500 RPM. Rolling samples were constantly rolling at 10 rpm. The samples were tested on the MCS for endotoxin at 1 minute, 20 minutes, 40 minutes, 60 minutes, and 80 minutes.

[3] = Suture testing in ethanol, cyclohexane, isopropanol with 1% calcium stearate; format: biochemical; details: for Change in Endotoxin Level (%): vs. Suture-1 not submerged (68.1 EU)
Protocol: Similarly to the testing above, an absorbable suture of the same type, similarly contaminated, was exposed to CaSt in three solvents (ethanol, cyclohexane, isopropanol). The suture was then tested for LPS.
Sutures used were 27 inch long pieces of absorbable lactide-glycolide sutures. […] 7 strands of suture were placed in tubing with endotoxin solution for 10 minutes at a time. The sutures were dried for 20 minutes and then placed in round bottom tubes. […] 1 suture was placed in each tube and vortexed in this solution for approximately 10 seconds. The sutures were removed and allowed to dry for 20 minutes and then placed in round bottom tubes. This was done for 6 sutures. 1 piece of suture, serving as the control, was not submerged in any solutions and placed in test tubes. 3 mL of LAL reagent water was added to each test tube, vortexed vigorously, and then placed in a hot water bath at 37°C for 1 hour. They were then removed, vortexed vigorously, diluted, and tested on the MCS system. […] Results of testing in ethanol, cyclohexane, isopropanol

[4] = format: in vivo; details: female rats, observed 4 days
Protocol: An animal study was conducted with 30 female rats with weights ranging from 250-300g and acclimated for 5 days. All rats were dosed with intraperitoneal injections using 18 gauge needles. The rats were broken into 6 groups. A negative control (NC-1) dosed 5 rats with 5mL of normal saline solution. […] A positive control (PC-1) dosed 5 rats with 2.5 million EU in a 5mL saline solution. A second positive control (PC-2) was conducted dosing 5 rats with 5 million endotoxin units in a 5mL normal saline solution. Two experimental test groups were conducted.
The negative control samples also had no toxicity. Table 21. Results of animal study with CaSt dosing

[5] = suture submerged in Cyclohexane w/1% Calcium Stearate (0.0858 g)
[6] = suture submerged in Ethanol w/1% Calcium Stearate (0.0827 g)
[7] = suture submerged in Isopropanol w/1% Calcium Stearate (0.0841 g)

Compound: CCCCCCCCCCCCCCCCCC(=O)O [Calcium Stearate]
- Endotoxin Detected (EU) ([1]; Water with 5% Calcium Stearate solution tested after suture removal (samples 4-6)): <1.0 EU
- Average Endotoxin Detected (EU) ([1]; suture submerged in LAL Water w/ 5% Calcium Stearate, samples 4-6): 3.27 EU
- Average Change in Endotoxin Level (%) ([1]; suture submerged in LAL Water w/ 5% Calcium Stearate, vs. sutures not submerged (84 EU)): -96.1%
- removal of LPS (in words), comparison of salts of stearic acid ([2]; CaSt vs. other salt forms): more efficacious in removal of LPS
- Endotoxin Detected (EU) ([2]; Rolling, 1 minute): 1,230 EU
- Percent (%) Removed ([2]; Rolling, 1 minute): 18.1%
- Endotoxin Detected (EU) ([2]; Rolling, 20 minutes): 1,050 EU
- Percent (%) Removed ([2]; Rolling, 20 minutes): 30.1%
- Endotoxin Detected (EU) ([2]; Rolling, 40 minutes): 630 EU
- Percent (%) Removed ([2]; Rolling, 40 minutes): 58.1%
- Endotoxin Detected (EU) ([2]; Rolling, 60 minutes): 637 EU
- Percent (%) Removed ([2]; Rolling, 60 minutes): 57.6%
- Endotoxin Detected (EU) ([2]; Rolling, 80 minutes): 451 EU
- Percent (%) Removed ([2]; Rolling, 80 minutes): 70%
- Endotoxin Detected (EU) ([2]; Sonication, 1 minute): 270 EU
- Percent (%) Removed ([2]; Sonication, 1 minute): 82%
- Endotoxin Detected (EU) ([2]; Sonication, 20 minutes): 130 EU
- Percent (%) Removed ([2]; Sonication, 20 minutes): 91.3%
- Endotoxin Detected (EU) ([2]; Sonication, 40 minutes): 87.5 EU
- Percent (%) Removed ([2]; Sonication, 40 minutes): 94.2%
- Endotoxin Detected (EU) ([2]; Sonication, 60 minutes): 56.9 EU
- Percent (%) Removed ([2]; Sonication, 60 minutes): 96.2%
- Endotoxin Detected (EU) ([2]; Sonication, 80 minutes): 16.4 EU
- Percent (%) Removed ([2]; Sonication, 80 minutes): 98.9%
- Endotoxin Detected (EU) ([2]; Vortexing, 1 minute): 451 EU
- Percent (%) Removed ([2]; Vortexing, 1 minute): 70%
- Endotoxin Detected (EU) ([2]; Vortexing, 20 minutes): 301 EU
- Percent (%) Removed ([2]; Vortexing, 20 minutes): 80%
- Endotoxin Detected (EU) ([2]; Vortexing, 40 minutes): 139 EU
- Percent (%) Removed ([2]; Vortexing, 40 minutes): 90.7%
- Endotoxin Detected (EU) ([2]; Vortexing, 60 minutes): 173 EU
- Percent (%) Removed ([2]; Vortexing, 60 minutes): 88.5%
- Percent (%) Removed ([2]; Vortexing, 80 minutes): 93.1%
- LPS activity decreased by ([3]; CaSt 1% suspension in ethanol, cyclohexane, isopropanol): 75-95%
- Endotoxin Detected (EU) [3, 5]: 4.02 EU
- Change in Endotoxin Level (%) [3, 5]: -94.1%
- Endotoxin Detected (EU) [3, 6]: 15.06 EU
- Change in Endotoxin Level (%) [3, 6]: -77.9%
- Endotoxin Detected (EU) [3, 7]: 16.59 EU
- Change in Endotoxin Level (%) [3, 7]: -75.6%
- Results (toxicity) ([4]; NC-2: 0.2 g Calcium Stearate in 5.0 mL normal saline, intraperitoneal, no endotoxin): No Toxicity Observed
- Results (toxicity) ([4]; T-1: 2,500,000 EU + 0.2g Calcium Stearate + normal saline (5.0 mL) dosed IP): No Toxicity Observed
- Results (toxicity) ([4]; T-1: 2,500,000 EU + 0.2g Calcium Stearate + normal saline (5.0 mL) dosed IP, listed as calcium stearate): no toxicity or adverse effects
- Results (toxicity) ([4]; T-2: 5,000,000 EU + 0.2g Calcium Stearate + normal saline (5.0 mL) dosed IP): No Toxicity Observed
- Results (toxicity) ([4]; T-2: 5,000,000 EU + 0.2g Calcium Stearate + normal saline (5.0 mL) dosed IP, listed as calcium stearate): no toxicity or adverse effects
